Assay results reported in the NIST ThermoML archive (doi:10.1016/j.jct.2019.05.021).
Numbers after ± are expanded uncertainties.

Assay: xn = mol fraction of the nth substance listed
Details: 100 kPa, Liquid; for viscosity: Falling or rolling sphere viscometry; for mass density: Vibrating tube method

CCCCCCCCCCCC(=O)OC [methyl dodecanoate] + CC1CCCCC1
Details	mass density [kg/m3]	viscosity [mPa·s]
293.15 K, x2 = 0	869.3 ± 1.7	3.151 ± 0.067
293.15 K, x2 = 0.1	863.68 ± 1.7	2.838 ± 0.061
293.15 K, x2 = 0.2	857.47 ± 1.7	2.545 ± 0.054
293.15 K, x2 = 0.3	850.62 ± 1.7	2.264 ± 0.048
293.15 K, x2 = 0.4001	842.9 ± 1.7	2 ± 0.043
293.15 K, x2 = 0.5001	834.34 ± 1.7	1.743 ± 0.037
293.15 K, x2 = 0.6	824.66 ± 1.6	1.501 ± 0.032
293.15 K, x2 = 0.6999	813.62 ± 1.6	1.28 ± 0.027
293.15 K, x2 = 0.8	801 ± 1.6	1.071 ± 0.023
293.15 K, x2 = 0.8999	786.46 ± 1.6	0.887 ± 0.019
298.15 K, x2 = 0	865.39 ± 1.7	2.792 ± 0.06
298.15 K, x2 = 0.1	859.76 ± 1.7	2.527 ± 0.054
298.15 K, x2 = 0.2	853.54 ± 1.7	2.28 ± 0.049
298.15 K, x2 = 0.3	846.68 ± 1.7	2.041 ± 0.044
298.15 K, x2 = 0.4001	838.94 ± 1.7	1.811 ± 0.039
298.15 K, x2 = 0.5001	830.36 ± 1.7	1.587 ± 0.034
298.15 K, x2 = 0.6	820.65 ± 1.6	1.373 ± 0.029
298.15 K, x2 = 0.6999	809.56 ± 1.6	1.177 ± 0.025
298.15 K, x2 = 0.8	796.88 ± 1.6	0.992 ± 0.021
298.15 K, x2 = 0.8999	782.25 ± 1.6	0.825 ± 0.018
303.15 K, x2 = 0	861.46 ± 1.7	2.504 ± 0.054
303.15 K, x2 = 0.1	855.83 ± 1.7	2.279 ± 0.049
303.15 K, x2 = 0.2	849.6 ± 1.7	2.06 ± 0.044
303.15 K, x2 = 0.3	842.72 ± 1.7	1.85 ± 0.04
303.15 K, x2 = 0.4001	834.97 ± 1.7	1.646 ± 0.035
303.15 K, x2 = 0.5001	826.36 ± 1.7	1.448 ± 0.031
303.15 K, x2 = 0.6	816.61 ± 1.6	1.261 ± 0.027
303.15 K, x2 = 0.6999	805.48 ± 1.6	1.087 ± 0.023
303.15 K, x2 = 0.8	792.75 ± 1.6	0.919 ± 0.02
303.15 K, x2 = 0.8999	778.03 ± 1.6	0.77 ± 0.016
308.15 K, x2 = 0	857.53 ± 1.7	2.263 ± 0.048
308.15 K, x2 = 0.1	851.9 ± 1.7	2.064 ± 0.044
308.15 K, x2 = 0.2	845.67 ± 1.7	1.876 ± 0.04
308.15 K, x2 = 0.3	838.76 ± 1.7	1.693 ± 0.036
308.15 K, x2 = 0.4001	830.99 ± 1.7	1.512 ± 0.032
308.15 K, x2 = 0.5001	822.36 ± 1.6	1.339 ± 0.029
308.15 K, x2 = 0.6	812.57 ± 1.6	1.168 ± 0.025
308.15 K, x2 = 0.6999	801.4 ± 1.6	1.007 ± 0.022
308.15 K, x2 = 0.8	788.6 ± 1.6	0.858 ± 0.018
308.15 K, x2 = 0.8999	773.79 ± 1.6	0.722 ± 0.015
313.15 K, x2 = 0	853.61 ± 1.7	2.049 ± 0.044
313.15 K, x2 = 0.1	847.96 ± 1.7	1.877 ± 0.04
313.15 K, x2 = 0.2	841.71 ± 1.7	1.714 ± 0.037
313.15 K, x2 = 0.3	834.79 ± 1.7	1.552 ± 0.033
313.15 K, x2 = 0.4001	827.01 ± 1.7	1.393 ± 0.03
313.15 K, x2 = 0.5001	818.35 ± 1.6	1.237 ± 0.026
313.15 K, x2 = 0.6	808.52 ± 1.6	1.086 ± 0.023
313.15 K, x2 = 0.6999	797.31 ± 1.6	0.937 ± 0.02
313.15 K, x2 = 0.8	784.44 ± 1.6	0.801 ± 0.017
313.15 K, x2 = 0.8999	769.54 ± 1.6	0.676 ± 0.014
318.15 K, x2 = 0	849.69 ± 1.7	1.875 ± 0.04
318.15 K, x2 = 0.1	844.02 ± 1.7	1.725 ± 0.037
318.15 K, x2 = 0.2	837.77 ± 1.7	1.581 ± 0.034
318.15 K, x2 = 0.3	830.83 ± 1.7	1.437 ± 0.031
318.15 K, x2 = 0.4001	823.02 ± 1.6	1.294 ± 0.028
318.15 K, x2 = 0.5001	814.32 ± 1.6	1.151 ± 0.025
318.15 K, x2 = 0.6	804.45 ± 1.6	1.012 ± 0.022
318.15 K, x2 = 0.6999	793.18 ± 1.6	0.879 ± 0.019
318.15 K, x2 = 0.8	780.26 ± 1.6	0.754 ± 0.016
318.15 K, x2 = 0.8999	765.28 ± 1.5	0.638 ± 0.014
323.15 K, x2 = 0	845.76 ± 1.7	1.729 ± 0.037
323.15 K, x2 = 0.1	840.08 ± 1.7	1.592 ± 0.034
323.15 K, x2 = 0.2	833.81 ± 1.7	1.461 ± 0.031
323.15 K, x2 = 0.3	826.86 ± 1.7	1.332 ± 0.028
323.15 K, x2 = 0.4001	819.02 ± 1.6	1.202 ± 0.026
323.15 K, x2 = 0.5001	810.28 ± 1.6	1.073 ± 0.023
323.15 K, x2 = 0.6	800.37 ± 1.6	0.946 ± 0.02
323.15 K, x2 = 0.6999	789.06 ± 1.6	0.826 ± 0.018
323.15 K, x2 = 0.8	776.07 ± 1.6	0.711 ± 0.015
323.15 K, x2 = 0.8999	761 ± 1.5	0.603 ± 0.013

CCCCCCCCCC(=O)OC [methyl decanoate] + CC1CCCCC1
Details	mass density [kg/m3]	viscosity [mPa·s]
293.15 K, x2 = 0	872.25 ± 1.8	2.125 ± 0.047
293.15 K, x2 = 0.0999	865.57 ± 1.8	1.953 ± 0.043
293.15 K, x2 = 0.2	858.32 ± 1.7	1.783 ± 0.039
293.15 K, x2 = 0.3	850.46 ± 1.7	1.618 ± 0.035
293.15 K, x2 = 0.4001	841.94 ± 1.7	1.464 ± 0.032
293.15 K, x2 = 0.4998	832.57 ± 1.7	1.316 ± 0.028
293.15 K, x2 = 0.5999	822.32 ± 1.6	1.177 ± 0.025
293.15 K, x2 = 0.6999	811 ± 1.6	1.051 ± 0.023
293.15 K, x2 = 0.8	798.51 ± 1.6	0.933 ± 0.02
293.15 K, x2 = 0.9	784.68 ± 1.6	0.825 ± 0.018
298.15 K, x2 = 0	868.16 ± 1.8	1.909 ± 0.042
298.15 K, x2 = 0.0999	861.49 ± 1.7	1.758 ± 0.038
298.15 K, x2 = 0.2	854.23 ± 1.7	1.613 ± 0.035
298.15 K, x2 = 0.3	846.38 ± 1.7	1.473 ± 0.032
298.15 K, x2 = 0.4001	837.84 ± 1.7	1.339 ± 0.029
298.15 K, x2 = 0.4998	828.47 ± 1.7	1.209 ± 0.026
298.15 K, x2 = 0.5999	818.2 ± 1.6	1.084 ± 0.023
298.15 K, x2 = 0.6999	806.84 ± 1.6	0.969 ± 0.021
298.15 K, x2 = 0.8	794.31 ± 1.6	0.862 ± 0.019
298.15 K, x2 = 0.9	780.43 ± 1.6	0.765 ± 0.016
303.15 K, x2 = 0	864.06 ± 1.8	1.738 ± 0.038
303.15 K, x2 = 0.0999	857.38 ± 1.7	1.603 ± 0.035
303.15 K, x2 = 0.2	850.12 ± 1.7	1.474 ± 0.032
303.15 K, x2 = 0.3	842.25 ± 1.7	1.35 ± 0.029
303.15 K, x2 = 0.4001	833.72 ± 1.7	1.232 ± 0.027
303.15 K, x2 = 0.4998	824.32 ± 1.7	1.12 ± 0.024
303.15 K, x2 = 0.5999	814.03 ± 1.6	1.012 ± 0.022
303.15 K, x2 = 0.6999	802.63 ± 1.6	0.907 ± 0.02
303.15 K, x2 = 0.8	790.09 ± 1.6	0.807 ± 0.017
303.15 K, x2 = 0.9	776.16 ± 1.6	0.716 ± 0.015
308.15 K, x2 = 0	859.96 ± 1.7	1.588 ± 0.035
308.15 K, x2 = 0.0999	853.28 ± 1.7	1.47 ± 0.032
308.15 K, x2 = 0.2	846.01 ± 1.7	1.357 ± 0.03
308.15 K, x2 = 0.3	838.14 ± 1.7	1.247 ± 0.027
308.15 K, x2 = 0.4001	829.57 ± 1.7	1.142 ± 0.025
308.15 K, x2 = 0.4998	820.17 ± 1.6	1.038 ± 0.022
308.15 K, x2 = 0.5999	809.84 ± 1.6	0.937 ± 0.02
308.15 K, x2 = 0.6999	798.43 ± 1.6	0.843 ± 0.018
308.15 K, x2 = 0.8	785.85 ± 1.6	0.754 ± 0.016
308.15 K, x2 = 0.9	771.88 ± 1.6	0.673 ± 0.014
313.15 K, x2 = 0	855.85 ± 1.7	1.453 ± 0.032
313.15 K, x2 = 0.0999	849.16 ± 1.7	1.351 ± 0.03
313.15 K, x2 = 0.2	841.89 ± 1.7	1.251 ± 0.027
313.15 K, x2 = 0.3	834.02 ± 1.7	1.152 ± 0.025
313.15 K, x2 = 0.4001	825.43 ± 1.7	1.057 ± 0.023
313.15 K, x2 = 0.4998	816.01 ± 1.6	0.963 ± 0.021
313.15 K, x2 = 0.5999	805.67 ± 1.6	0.872 ± 0.019
313.15 K, x2 = 0.6999	794.22 ± 1.6	0.787 ± 0.017
313.15 K, x2 = 0.8	781.6 ± 1.6	0.707 ± 0.015
313.15 K, x2 = 0.9	767.57 ± 1.5	0.631 ± 0.014
318.15 K, x2 = 0	851.74 ± 1.7	1.341 ± 0.029
318.15 K, x2 = 0.0999	845.04 ± 1.7	1.252 ± 0.027
318.15 K, x2 = 0.2	837.76 ± 1.7	1.161 ± 0.025
318.15 K, x2 = 0.3	829.87 ± 1.7	1.072 ± 0.023
318.15 K, x2 = 0.4001	821.28 ± 1.6	0.986 ± 0.021
318.15 K, x2 = 0.4998	811.84 ± 1.6	0.904 ± 0.02
318.15 K, x2 = 0.5999	801.47 ± 1.6	0.822 ± 0.018
318.15 K, x2 = 0.6999	789.99 ± 1.6	0.743 ± 0.016
318.15 K, x2 = 0.8	777.33 ± 1.6	0.668 ± 0.014
318.15 K, x2 = 0.9	763.25 ± 1.5	0.598 ± 0.013
323.15 K, x2 = 0	847.62 ± 1.7	1.245 ± 0.027
323.15 K, x2 = 0.0999	840.91 ± 1.7	1.163 ± 0.025
323.15 K, x2 = 0.2	833.62 ± 1.7	1.083 ± 0.024
323.15 K, x2 = 0.3	825.72 ± 1.7	1.003 ± 0.022
323.15 K, x2 = 0.4001	817.11 ± 1.6	0.925 ± 0.02
323.15 K, x2 = 0.4998	807.66 ± 1.6	0.847 ± 0.018
323.15 K, x2 = 0.5999	797.25 ± 1.6	0.772 ± 0.017
323.15 K, x2 = 0.6999	785.75 ± 1.6	0.7 ± 0.015
323.15 K, x2 = 0.8	773.05 ± 1.6	0.632 ± 0.014
323.15 K, x2 = 0.9	758.92 ± 1.5	0.567 ± 0.012
